From patent US8143262B2, “7-(3′,4′-Dialkoxyphenyl)[1,2,4]-triazolo[1,5-A]pyrimidine compounds, process for preparing thereof, and pharmaceutical composition for treating or preventing asthma, chronic obstructive pulmonary disease, arthritis, atopic dermatitis, tumor and degenerative brain diseases comprising the same” (Korea Research Institute of Chemical Technology, priority 2007, dated 2012)

Assays:
ferrets = test: Test of side-effect related to emesis in ferrets; assay type: in vivo; settings: ferret, 7 mg/kg
Experimental: Male ferrets having the body weight of about 1.5˜2 kg, purchased from Marshal, were classified into the groups: control, yohimbine, #102-500 mg/kg and #102-1000 mg/kg treated groups. For three animals in each group, the medicine dissolved in 0.5% CMC at a concentration of 500 and 1000 mg/kg was orally administered. During 3 hours after then, the number of vomiting for each animal, and the number of animals showing salivation and diarrhea were measured by visual observation.

Human PDE-4d = biological target: T1, Human PDE-4d (Homo sapiens, UniProt Q08499); test: Inhibition of PDE-4 activity ([3H]cAMP hydrolysis, recombinant catalytic domain); assay type: biochemical; settings: for IC50: PDE4d 1 nM, cAMP 250 nM, 34° C., 45 minutes, read-out: IC50 against PDE-4 enzyme; for activity on inhibiting PDE-4 (in words): comment on Table 2
T1 construct: The catalytic domain of PDE4d was cloned to pGEX4T3 (APBiotech) as GST fusion expression vector; GST (N); made in house; host or cells: E. coli BL21, DE3
Experimental: Experiment of inhibiting PDE-4 activity was carried out by modifying the method of Loughney (Loughney et al., Journal of Biological Chemistry, 1996, 271(2), 796-806). Human PDE-4d prepared by means of gene recombination technology was used as PDE-4d
The catalytic domain of PDE4d was cloned to pGEX4T3 (APBiotech) as GST fusion expression vector, and then PDE4d gene was transformed to E. coli BL21, DE3. The strain was cultured at 37° C. in LB medium, and when OD reached about 0.3˜0.5, the temperature was lowered to 18° C. to induce expression of PDE4d by using 0.5 mM IPTG. After 15 hours from induction of the expression, cells with PDE4d expressed were recovered. The cells were suspended in a buffer solution (50 mM Tris, pH 8.0, 0.4M NaCl, 5 mM DTT), and crushed, centrifuged and purified. The columns used for the purification were Q-cephalose (APBiotech), Glutanione-cephalose (APBiotech) and Superdex200 gel permeation chromatography (APBiotech), in this order.
In order to measure the ability of individual compound to inhibit PDE4d activity, PDE4d 1 nM and cAMP (Sigma) 250 nM as substrate were added to the reaction buffer (50 mM Tris-HCl (pH 7.5) and 4 mM MgCl2), and individual compound obtained from Example 1 was added in a concentration from 1 to 50 μM thereto, and the mixture was reacted at 34° C. for 45 minutes. Total reaction solution was 60 μl. As to cAMP, a mixture with the ratio of [^3H]cAMP (Amersham, 1 μCi/μl) to cAMP (hot:cold, that is, isotope:non-isotope) being 1:200 was used. Then, the reaction was quenched by heating at 95° C. for 2 minutes. After cooling the mixture for 3 minutes, 1 mg/ml of Snake Venome (Sigma V0376) (30 μl) was added thereto. After reacting at 34° C. for 30 minutes, 30 μl of the reaction mixture was added to 250 μl of DOWEX 1×2-100 ion exchange resin (Aldrich, previously mixed with distilled water in a ratio of 1:1.6) by portions, and the mixture was vigorously stirred for 2 minutes. After settling the resin down, the supernatant (130 μl) was added to 2 ml of scintillation cocktail (Packard), and the mixture was thoroughly mixed, and then measured by using beta-counter. With respect to the enzyme activity of control group (experiment carried out without adding compound of Chemical Formula (1)), the concentration of each test compound to inhibit 50% of enzyme activity was determined as IC50.

PDE-4 = settings: background art; read-out: IC50 of inhibiting PDE-4; cited from earlier work
[1] = system: OVA-sensitized C57BL/6J mice; test: Airway hyper-responsiveness (Penh, whole body plethysmography) after methacholine in OVA-sensitized mice; assay type: in vivo, mouse; settings: oral, 100 mg/kg; versus Roflumilast 100 mg/kg oral
Experimental: (§1) For animal test in vivo, 8-9 week old male C57BL/6J mice having body weight of 20-25 g were used as the test animal. For sensitization and challenge of airway and lung by ovalbumin (OVA), OVA mixed with Al(OH)3 was administered intraperitoneally to cause first sensitization, and second sensitization after 10 days from the first sensitization. After 6 days from the second sensitization, the animals were inhaled with 5% OVA via nebulizer for 3 days. Administration of medicine to the sensitized mice was carried out intraorally (po), three times one hour before every inhalation of OVA. To the control group, 0.5% CMC was administered.
The analysis of airway hyper-responsiveness (AHR) was carried out by using a whole body plethysmographer with a living animal.
After 48 hours from inhalation of OVA, the animal was inhaled with methacholine (Mch) by means of nebulizer. Responsiveness of airway due to Mch was evaluated by enhanced pause (Penh) value on capability of respiration through airway by means of whole body plethysmography, and compared with control medicine.

[2] = system: OVA-sensitized C57BL/6J mice; test: Eosinophil peroxidase activity (EPO activity) in bronchoalveolar washing of OVA-sensitized mice; assay type: in vivo, mouse; settings: oral, 5, 50, 100 and 300 mg/kg
Experimental: as §1
In order to observe cell activity and cell constitution in the washing solution of mouse bronchus alveolus, the animal was inhaled with OVA. After 62 hours, the mouse was anesthetized and the cervicothoracic region was open. A tube containing 0.8 ml of PBS was inserted to the bronchus, and PBS was injected. After massaging the chest for about 30 seconds, cell suspension was obtained from the lung. The cells obtained were centrifuged with 400×g. […] For the measurement of EPO activity, the cell suspension ([…]) was reacted with 0.1 mM OPD, 0.05 M Tris-HCl (pH 8.0), Triton X-100 and 1 mM H2 O2, and then absorbance at 492 nm was measured.

T1 sequence (Q08499 386-715 limits assumed): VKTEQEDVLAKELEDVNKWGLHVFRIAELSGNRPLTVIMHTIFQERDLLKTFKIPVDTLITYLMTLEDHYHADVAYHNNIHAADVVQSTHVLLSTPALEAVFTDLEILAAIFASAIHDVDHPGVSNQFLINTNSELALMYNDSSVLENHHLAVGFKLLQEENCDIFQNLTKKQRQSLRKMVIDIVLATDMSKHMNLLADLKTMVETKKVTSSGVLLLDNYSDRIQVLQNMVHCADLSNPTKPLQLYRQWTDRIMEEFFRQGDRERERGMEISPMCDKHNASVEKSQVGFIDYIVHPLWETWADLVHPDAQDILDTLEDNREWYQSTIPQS

Row | Structure (SMILES) | IC50 (Human PDE-4d) | other results
1 | COC(=O)[C@@H]1[C@H]2C[C@H]3c4[nH]c5ccccc5c4CCN3C[C@@H]2CC[C@@H]1O [yohimbine] |  | animals showing salivation and diarrhea (ferrets): 66%; vomiting symptoms (number of vomiting per animal) (ferrets; observed in all ferrets used): average twice
2 | [O-][n+]1cc(-c2nc3nccc(-c4ccc(OC(F)F)c(OCC5CC5)c4)n3n2)ccc1Cl [Compound 108, 3-[7-{3-(Cyclopropylmethoxy)-4-(difluoromethoxy)phenyl}-[1,2,4]triazolo[1,5-a]pyrimidine-2-yl]-6-Chloropyridine-N-oxide] | 0.24 µM | 
3 | COc1ccc(-c2ccnc3nc(-c4cccc(C#N)c4)nn23)cc1OC1CCCC1 [Compound 129, 7-[3-(Cyclopentoxy)-4-methoxyphenyl]-2-(3-cyanophenyl)-[1,2,4]triazolo[1,5-a]pyrimidine] | 0.013 µM | 
4 | O=C(Nc1c(Cl)cncc1Cl)c1ccc(OC(F)F)c(OCC2CC2)c1 [Roflumilast] |  | IC50 (PDE-4): 0.0008 µM
5 | FC(F)Oc1ccc(-c2ccnc3nc(-c4cccnc4)nn23)cc1OCC1CC1 [Compound 101, 7-[3-(cyclopropylmethoxy)-4-(difluoromethoxy)phenyl]-2-pyridin-3-yl-[1,2,4]triazolo[1,5-a]pyrimidine] | 0.018 µM | 
6 | [O-][n+]1cccc(-c2nc3nccc(-c4ccc(OC(F)F)c(OCC5CC5)c4)n3n2)c1 [Compound 102, 3-[7-{3-(cyclopropylmethoxy)-4-(difluoromethoxy)phenyl}-[1,2,4]triazolo[1,5-a]pyrimidine-2-yl]-pyridine-N-oxide] | 0.074 µM | effect of treating asthma: degree of airway contraction by enhanced pause (Penh) value [1]: far superior effect of treating asthma to the control compound, Roflumilast; eosinophil peroxidase activity (EPO activity) [2]: excellent effect
7 | Fc1cccc(-c2nc3nccc(-c4ccc(OC(F)F)c(OCC5CC5)c4)n3n2)c1 [Compound 106, 7-[3-(Cyclopropylmethoxy)-4-(difluoromethoxy)phenyl]-2-(3-fluorophenyl)-[1,2,4]triazolo[1,5-a]pyrimidine] | 0.023 µM | 

Second part, led by results:

Row | IC50 (Human PDE-4d) | Structure (SMILES) | other results
8 | 0.046 µM | NC(=O)c1ccc(-c2nc3nccc(-c4ccc(OC(F)F)c(OCC5CC5)c4)n3n2)cn1 [Compound 139, 5-[7-{3-(cyclopropylmethoxy)-4-(difluoromethoxy)phenyl}-[1,2,4]triazolo[1,5-a]pyrimidin-2-yl]pyridine-2-carboxamide] | 
9 | 0.035 µM | CSc1ccc(-c2nc3nccc(-c4ccc(OC(F)F)c(OCC5CC5)c4)n3n2)cc1 [Compound 140, 7-[3-(Cyclopropylmethoxy)-4-(difluoromethoxy)phenyl]-2-(4-methylthiophenyl)-[1,2,4]triazolo[1,5-a]pyrimidine] | 
10 | 0.006 µM | Nc1cccc(-c2nc3nccc(-c4ccc(OC(F)F)c(OCC5CC5)c4)n3n2)c1 [Compound 119, 2-(3-Aminophenyl)-7-[3-(cyclopropylmethoxy)-4-(difluoromethoxy)phenyl]-[1,2,4]triazolo[1,5-a]pyrimidine] | activity on inhibiting PDE-4 (in words) (Human PDE-4d): excellent activity on inhibiting PDE-4
11 | 0.25 µM | [O-][n+]1cccc(-c2nc3nccc(-c4ccc(OC(F)F)c(OC(F)F)c4)n3n2)c1 [Compound 130, 3-[7-(3,4-Bis-difluoromethoxyphenyl)-[1,2,4]triazolo[1,5-a]pyrimidine-2-yl]-pyridine-N-oxide] | 
12 | 0.17 µM | N#Cc1ccc(-c2nc3nccc(-c4ccc(OC(F)F)c(OCC5CC5)c4)n3n2)cn1 [Compound 123, 2-(2-cyano-pyridin-5-yl)-7-[3-(cyclopropylmethoxy)-4-(difluoromethoxy)phenyl]-[1,2,4]triazolo[1,5-a]pyrimidine] | 
13 | 0.03 µM | O=C(O)c1ccc(-c2nc3nccc(-c4ccc(OC(F)F)c(OCC5CC5)c4)n3n2)cc1 [Compound 118, 4-[7-{3-(cyclopropylmethoxy)-4-(difluoromethoxy)phenyl}-[1,2,4]triazolo[1,5-a]pyrimidin-2-yl]benzoic acid] | 
14 | 0.033 µM | FC(F)Oc1ccc(-c2ccnc3nc(-c4cccnc4)nn23)cc1OCC1CC1 [Compound 112, 3-[7-{3-(cyclopropylmethoxy)-4-(difluoromethoxy)phenyl}-[1,2,4]triazolo[1,5-a]pyrimidin-2-yl]-pyridinium chloride] | 
15 | 0.01 µM | N#Cc1cccc(-c2nc3nccc(-c4ccc(OC(F)F)c(OCC5CC5)c4)n3n2)c1 [Compound 115, 2-(3-Cyanophenyl)-7-[3-(cyclopropylmethoxy)-4-(difluoromethoxy)phenyl]-[1,2,4]triazolo[1,5-a]pyrimidine] | activity on inhibiting PDE-4 (in words) (Human PDE-4d): excellent activity on inhibiting PDE-4
16 | 0.02 µM | O=C(O)c1cccc(-c2nc3nccc(-c4ccc(OC(F)F)c(OCC5CC5)c4)n3n2)c1 [Compound 131, 3-[7-{3-(Cyclopropylmethoxy)-4-(difluoromethoxy)phenyl}-[1,2,4]triazolo[1,5-a]pyrimidin-2-yl]benzoic acid] | activity on inhibiting PDE-4 (in words) (Human PDE-4d): excellent activity on inhibiting PDE-4
17 | 0.005 µM | FC(F)Oc1ccc(-c2ccnc3nc(-c4cccc(I)c4)nn23)cc1OCC1CC1 [Compound 126, 7-[3-(Cyclopropylmethoxy)-4-(difluoromethoxy)phenyl]-2-(3-iodophenyl)-[1,2,4]triazolo[1,5-a]pyrimidine] | activity on inhibiting PDE-4 (in words) (Human PDE-4d): most excellent activity
